Measured values from US11352330B2, “Phenoxymethyl derivatives” (Hoffmann-La Roche Inc., priority 2015, dated 2022).

The compounds below were run against human ATX (Homo sapiens (Human), UniProt Q13822) (assay: Human ATX enzyme inhibition assay (fluorescence quenching, MR121 substrate)). Settings: human His-tagged ATX 30 nM, MR121 substrate 1 μM, 30° C.
Type: biochemical
Procedure: Human ATX Enzyme Inhibition Assay
ATX inhibition was measured by a fluorescence quenching assay using a specifically labeled substrate analogue (MR121 substrate). To obtain this MR121 substrate, BOC and TBS protected 6-amino-hexanoic acid (R)-3-({2-[3-(2-{2-[2-(2-amino-ethoxy)-ethoxy]-ethoxy}-ethoxy)-propionylamino]-ethoxy}-hydroxy-phosphoryloxy)-2-hydroxy-propyl ester (Ferguson et al., Org Lett 2006, 8 (10), 2023) was labeled with MR121 fluorophore (CAS 185308-24-1, 1-(3-carboxypropyl)-11-ethyl-1,2,3,4,8,9,10,11-octahydro-dipyrido[3,2-b:2′,3′-i]phenoxazin-13-ium) on the free amine of the ethanolamine side and then, after deprotection, subsequently with tryptophan on the side of the aminohexanoic acid.
Assay working solutions were made as follows:
Assay buffer (50 mM Tris-HCl, 140 mM NaCl, 5 mM KCl, 1 mM CaCl2, 1 mM MgCl2, 0.01% Triton-X-100, pH 8.0;
ATX solution: ATX (human His-tagged) stock solution (1.08 mg/mL in 20 mM bicine, pH 8.5, 0.15 M NaCl, 10% glycerol, 0.3% CHAPS, 0.02% NaN3), diluted to 1.4-2.5× final concentration in assay buffer;
MR121 substrate solution: MR121 substrate stock solution (800 μM MR121 substrate in DMSO), diluted to 2-5× final concentration in assay buffer.
Test compounds (10 mM stock in DMSO, 8 μL) were obtained in 384 well sample plates (Corning Costar #3655) and diluted with 8 μL DMSO. Row-wise serial dilutions were made by transferring 8 μL cpd solution to the next row up to row O. The compound and control solutions were mixed five times and 2 μL were transferred to 384 well assay plates (Corning Costar #3702). Then, 15 μL of 41.7 nM ATX solution was added (30 nM final concentration), mixed five times and then incubated for 15 minutes at 30° C. 10 μL of MR121 substrate solution was added (1 μM final concentration), mixed 30 times and then incubated for 15 minutes at 30° C.

| IC50 | SMILES |
| --- | --- |
| > 82 µM | Cc1cc(OCc2n[nH]c3ccccc23)c(C(C)(C)C)cc1S(C)(=O)=O [Example D10] |
| 0.006 µM | Cc1cc(OCc2n[nH]c(=O)n2C)c(-c2cc(OCC3CCCO3)ccc2F)cc1Cl (centres unmarked) [Example B74] |
| 0.126 µM | Cc1cc(OCc2n[nH]c(=O)n2C)c(-c2cc(C(F)(F)F)nn2C)cc1Cl [Example B24, 3-[[4-Chloro-5-methyl-2-[2-methyl-5-(trifluoromethyl)pyrazol-3-yl]phenoxy]methyl]4-methyl-1H-1,2,4-triazol-5-one] |
| 0.042 µM | COc1ncccc1-c1cc(Cl)c(C)cc1OCc1n[nH]c(=O)n1C [Example B53] |
| 0.006 µM | Cc1cc(OCc2n[nH]c(=O)n2C)c(-c2ccc(Cl)cc2)cc1Cl [Example B4] |
| 0.021 µM | Cc1cc(OCc2n[nH]c3cccnc23)c(C(C)(C)C)cc1Cl [Example D23] |
| 0.019 µM | Cc1cc(OCc2n[nH]c3nc(F)ccc23)c(C(C)(C)C)cc1Cl [Example D6, 3-[(2-tert-Butyl-4-chloro-5-methylphenoxy)methyl]-6-fluoro-1H-pyrazolo[3,4-b]pyridine] |
| 0.009 µM | Cc1nc2cc(OCc3n[nH]c(=O)n3C)c(C3CC3)cc2s1 [Example A30] |
| 0.062 µM | Cc1cc(OCc2n[nH]c(=O)n2C)c(C2CCOCC2)cc1Cl [Example A21] |
| 3.77 µM | Cn1c(COc2ccc(-c3ncc[nH]3)cc2C(C)(C)C)n[nH]c1=O [Example A32, 3-[[2-tert-butyl-4-(1H-imidazol-2-yl)phenoxy]methyl]-4-methyl-1H-1,2,4-triazol-5-one] |
| 0.01 µM | Cc1cc(OCc2n[nH]c(=O)n2C)c(-c2cc(CNC(=O)C3CC3)ccc2F)cc1Cl [Example B79] |
| 0.008 µM | Cn1c(COc2cc(Cl)c(C#N)cc2-c2cc(OC(F)(F)F)ccc2F)n[nH]c1=O [Example B97, 2-chloro-5-[2-fluoro-5-(trifluoromethoxy)phenyl]-4-[(4-methyl-5-oxo-1H-1,2,4-triazol-3-yl)methoxy]benzonitrile] |
| 0.051 µM | Cn1c(COc2cc(Cl)c(C#N)cc2-c2cccc(-c3cc[nH]n3)c2)n[nH]c1=O [Example B34, 2-Chloro-4-[(4-methyl-5-oxo-1H-1,2,4-triazol-3-yl)methoxy]-5-[3-(H-pyrazol-3-yl)phenyl]benzonitrile] |
| 0.016 µM | Cc1cc(OCc2n[nH]c(=O)n2C)c(-c2cc(OCC(C)C)ccc2F)cc1Cl [Example B58] |
| 0.004 µM | CC(C)Oc1ccc(F)c(-c2cc(C#N)c(Cl)cc2OCc2n[nH]c(=O)n2C)c1 [Example B89] |
| 0.212 µM | Cc1cc(OCc2n[nH]c(=O)n2C)c(-c2ncccn2)cc1Cl [Example B23, 3-[(4-Chloro-5-methyl-2-pyrimidin-2-yl-phenoxy)methyl]-4-methyl-1H-1,2,4-triazol-5-one] |
| 0.012 µM | Cc1cc(OCc2n[nH]c3nc(NCCO)ccc23)c(C(C)(C)C)cc1Cl [Example D7, 2-[[3-[(2-tert-Buty-4-chloro-&-methylphenoxy)methyl]-1H-pyrazolo[3,4-b]pyridin-6-yl]amino]ethanol] |
| 0.082 µM | Cc1cc(OCc2n[nH]c(=O)n2C)c(-c2cccc(C(=O)NCCC(=O)O)c2)cc1Cl [Example B47] |
| 0.003 µM | Cc1cc(C(C)C)c(OCc2ccc(=O)[nH]n2)cc1Cl [Example C4, 3-[(5-chloro-4-methyl-2-propan-2-ylphenoxy)methyl]-1H-pyridazin-6-one] |
| 0.037 µM | Cn1c(COc2cc(Cl)c(C#N)cc2-c2cc(C(F)(F)F)ccc2F)n[nH]c1=O [Example B96] |
| 0.049 µM | Cc1cc(OCc2n[nH]c(=O)n2C)c(-c2cc(C#N)ccc2OC(F)(F)F)cc1Cl [Example B86] |
| 0.01 µM | Cc1cc(OCc2n[nH]c3nc(N4CC(O)C4)ncc23)c(C(C)(C)C)cc1Cl [Example D29] |
| 0.003 µM | Cc1cc(OCc2n[nH]c(=O)n2C)c(-c2cc(CN3CCCC3=O)ccc2F)cc1Cl [Example B81] |
| 0.01 µM | Cc1cc(OCc2n[nH]c(=O)n2C)c(-c2cccc(C(=O)N3CCCCC3)c2)cc1Cl [Example B8] |
| 0.022 µM | Cc1cc(OCc2ccc(=O)[nH]n2)c(C2CC2)cc1Cl [Example C2, 3-[(4-Chloro-2-cyclopropyl-5-methylphenoxy)methyl]-1H-pyridazin-6-one] |
| 0.005 µM | Cn1c(COc2cc(Cl)c(C#N)cc2-c2cc(Cl)ccc2F)n[nH]c1=O [Example B93] |
| 0.015 µM | Cc1cc(OCc2n[nH]c(=O)n2C)c(C2CC2)cc1Cl [Example A19] |

| IC50 | SMILES |
| --- | --- |
| 0.227 µM | Cc1cc(OCc2n[nH]c(=O)n2C)c(-c2cnccn2)cc1Cl [Example B22, 3-[(4-Chloro-5-methyl-2-pyrazin-2-ylphenoxy)methyl]-4-methyl-1H-1,2,4-triazol-5-one] |
| 0.04 µM | Cc1cc(C(C)(C)C)c(OCc2ccc(=O)[nH]n2)cc1C#N [Example C13] |
| 0.025 µM | CC(C)c1cc2c(cc1OCc1n[nH]c(=O)n1C)C(C)(C)CC2 [Example A3] |
| 0.007 µM | CCOC(=O)CNC(=O)c1cccc(-c2cc(Cl)c(C)cc2OCc2n[nH]c(=O)n2C)c1 [Example B46, Ethyl 2-[[3-[5-chloro-4-methyl-2-[(4-methyl-5-oxo-1H-1,2,4-triazol-3-yl)methoxy]phenyl]benzoyl]amino]acetate] |
| 0.104 µM | Cc1nnc(-c2ccc(OCc3n[nH]c(=O)n3C)c(C(C)(C)C)c2)o1 [Example A10] |
| 0.009 µM | Cc1cc(OCc2n[nH]c3ncccc23)c(-c2cc(C(=O)N(C)C)ccc2F)cc1Cl [Example D21] |
| 0.008 µM | N#Cc1cc(-c2cc(OC3CC3)ccc2F)c(OCc2n[nH]c3ncccc23)cc1Cl [Example D53] |
| 0.004 µM | Cn1c(COc2cc(Cl)c(C#N)cc2-c2cccc(F)c2F)n[nH]c1=O [Example B91] |
| 0.004 µM | COCCN(C)C(=O)c1ccc(F)c(-c2cc(Cl)c(C)cc2OCc2n[nH]c3cnccc23)c1 [Example D46] |
| 0.006 µM | Cc1cc(OCc2n[nH]c3nc(OCC(O)CO)ncc23)c(C(C)(C)C)cc1C#N (centres unmarked) [Example D37, 5-tert-Butyl-4-[[6-(2,3-dihydroxypropoxy)-1H-pyrazolo[3,4-d]pyrimidin-3-yl]methoxy]-2-methylbenzonitrile] |
| 0.009 µM | Cc1cc(OCc2n[nH]c3nc(NCCO)ncc23)c(C(C)(C)C)cc1Cl [Example D30] |
| 0.019 µM | Cc1ccc(C(C)C)c(OCc2n[nH]c(=O)n2C)c1 [Example A27, 4-Methyl-3-[(5-methyl-2-propan-2-ylphenoxy)methyl]-1H-1,2,4-triazol-5-one] |
| 0.007 µM | Cc1cc(OCc2n[nH]c3ccccc23)c(-c2cc(C(=O)N3CCN(C)C(=O)C3)ccc2F)cc1Cl [Example D41] |
| 0.007 µM | Cc1cc(OCc2n[nH]c(=O)n2C)c(-c2cc(C(=O)N(C)C3CCCC3)ccc2F)cc1Cl [Example B66] |
| 0.001 µM | Cc1cc(OCc2n[nH]c3ncccc23)c(-c2ccno2)cc1Cl [Example D5] |
| 0.029 µM | Cc1cc(OCc2n[nH]c(=O)n2C)c(-c2cccc(C(=O)N(C)CCO)c2)cc1Cl [Example B45, 3-[5-Chloro-4-methyl-2-[(4-methyl-5-oxo-1H-1,2,4-triazol-3-yl)methoxy]phenyl]-N-(2-hydroxyethyl)-N-methylbenzamide] |
| 0.021 µM | COC(=O)c1cccc(-c2cc(Cl)c(C)cc2OCc2n[nH]c(=O)n2C)c1 [Example B42, Methyl 3-[5-chloro-4-methyl-2-[(4-methyl-5-oxo-1H-1,2,4-triazol-3-yl)methoxy]phenyl]benzoate] |
| 0.019 µM | Cc1cc(OCc2n[nH]c3c2CCNC3)c(C(C)(C)C)cc1Cl [Example E4, 3-((2-tert-Butyl-4-chloro-5-methylphenoxy)methyl)-4,5,6,7-tetrahydro-1H-pyrazolo[3,4-c]pyridine] |
| 0.019 µM | Cc1cc(OCc2n[nH]c(=O)n2C)c(C2CCC2)cc1Cl [Example A31] |
| 0.05 µM | CC(C)c1cc(Cl)ccc1OCc1n[nH]c(=O)n1C [Example A29] |
| 0.001 µM | CC(C)(C)c1cc(Cl)c(C#N)cc1OCc1n[nH]c2cnccc12 [Example D50] |
| 0.079 µM | Cc1nnc(-c2cccc(-c3cc(C#N)c(Cl)cc3OCc3n[nH]c(=O)n3C)c2)o1 [Example B37] |
| 0.495 µM | Cc1cc(OCc2n[nH]c(=O)n2C)c(-c2cnco2)cc1Cl [Example B26] |
| 0.023 µM | Cc1cc(OCc2n[nH]c(=O)n2C)c(-c2cccc(C(=O)N3CCOCC3)c2)cc1Cl [Example B10] |
| 0.014 µM | Cc1cc(OCc2n[nH]c3nc(N(C)CCO)ncc23)c(C(C)(C)C)cc1Cl [Example D26, 2-[[3-[(2-tert-Butyl-4-chloro-5-methylphenoxy)methyl]-1H-pyrazolo[3,4-d]pyrimidin-6-yl]-methylamino]ethanol] |
| 13.2 µM | Cc1cc(OCc2n[nH]c3nc(OCCO)ccc23)c(C(C)(C)C)cc1Cl [Example D13, 2-[[3-[(2-t-Butyl-4-chloro-&-methylphenoxy)methyl]-1H-pyrazolo[3,4-b]pyridin-6-yl]oxy]ethanol] |
